Data: patent US20240174671A1, “New 2,3-Dihydro-1H-pyrrolo[3,2-b]pyridine Derivatives as Sigma Ligands” (ACONDICIONAMIENTO TARRASENSE, priority 2021, published 2024)
Where two headings read alike, the source gives them in different places.

How the values were obtained:
[1] = biological target: T1, human σ1 receptor (Homo sapiens, UniProt Q99720); test: Human σ1 receptor radioligand assay ([3H](+)-pentazocine); format: binding
T1 construct: expressed in transfected cells; host or cells: HEK-293
In short: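 Binding used [3H](+)-pentazocine, 120 min at 37° C, with non-specific binding defined by 10 μM haloperidol. Bound radioligand was collected by filtration, washed with ice-cold 10 mM Tris-HCl pH 7.4 and counted by scintillation.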

[2] = biological target: T2, human σ2/TMEM97 receptor (Homo sapiens, UniProt Q5BJF2); test: Binding assay to human σ2/TMEM97 receptor ([3H]-DTG); details: transfected HEK-293 membranes, 10 nM [3H]-DTG, 25° C., 120 minutes; read-out: Binding σ-[…] (binding to σ2-receptor expressed as Ki)
T2 construct: expressed in transfected cells; host or cells: HEK-293
In short: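 Membranes from transfected HEK-293 cells incubated with 10 nM [3H]-DTG in 50 mM Tris-HCl pH 8.0, 120 min at 25 °C; non-specific binding defined with 10 μM haloperidol. Bound radioactivity counted after filtration; compounds tested as % inhibition at 1 or 10 μM or at five concentrations for Ki.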

[3] = transfected HEK-293 membranes, 5 nM [3H](+)-pentazocine, 37° C., 120 minutes, read-out: Binding σ-[…] (binding to σ1-receptor expressed as Ki)

T2 sequence (Q5BJF2 whole entry): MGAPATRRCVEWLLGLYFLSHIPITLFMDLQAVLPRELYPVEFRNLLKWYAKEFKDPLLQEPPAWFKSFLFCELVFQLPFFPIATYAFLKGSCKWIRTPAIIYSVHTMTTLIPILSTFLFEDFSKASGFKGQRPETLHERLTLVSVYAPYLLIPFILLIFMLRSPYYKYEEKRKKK
T1 sequence (Q99720 whole entry): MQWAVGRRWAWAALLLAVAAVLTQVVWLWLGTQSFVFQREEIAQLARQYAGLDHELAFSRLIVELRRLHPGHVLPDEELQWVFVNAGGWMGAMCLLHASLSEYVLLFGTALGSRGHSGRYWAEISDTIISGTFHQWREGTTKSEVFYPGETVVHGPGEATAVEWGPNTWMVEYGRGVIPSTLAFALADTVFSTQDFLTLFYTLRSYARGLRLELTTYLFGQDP

| SMILES | Ki [1, 3] [nM] | Ki [2] [nM] | Ki [1] [nM] |
| --- | --- | --- | --- |
| CC1(C)CN(C(=O)NC2CCN(Cc3ccccc3)CC2)c2cccnc21 [Example 32, N-(1-benzylpiperidin-4-yl)-3,3-dimethyl-2,3-dihydro-1H-pyrrolo[3,2-b]pyridine-1-carboxamide] | < 100 | > 1000 | – |
| CN(C)[C@@H](CNC(=O)N1CC(C)(C)c2ncc(F)cc21)c1ccccc1 [Example 20, (R)—N-(2-(dimethylamino)-2-phenylethyl)-6-fluoro-3,3-dimethyl-2,3-dihydro-1H-pyrrolo[3,2-b]pyridine-1-carboxamide] | < 100 | > 1000 | – |
| CC1(C)CN(C(=O)N2CCC3(CCN(Cc4cccc(C#N)c4)CC3)C2)c2cccnc21 [Example 90, 3-((2-(3,3-dimethyl-2,3-dihydro-1H-pyrrolo[3,2-b]pyridine-1-carbonyl)-2,8-diazaspiro[4.5]decan-8-yl)methyl)benzonitrile] | 100 to 500 | < 100 | – |
| CC1(C)CN(C(=O)NC2CC3(CCN(Cc4ccccc4)CC3)C2)c2cccnc21 [Example 104, N-(7-benzyl-7-azaspiro[3.5]nonan-2-yl)-3,3-dimethyl-2,3-dihydro-1H-pyrrolo[3,2-b]pyridine-1-carboxamide] | 100 to 500 | 100 to 500 | – |
| Cc1ccc2c(n1)C(C)(C)CN2C(=O)N1CCC2(CCN(CC3CCOCC3)CC2)CC1 [Example 161, (9-((tetrahydro-2H-pyran-4-yl)methyl)-3,9-diazaspiro[5.5]undecan-3-yl)(3,3,5-trimethyl-2,3-dihydro-1H-pyrrolo[3,2-b]pyridin-1-yl)methanone] | 100 to 500 | < 100 | – |
| Cc1ccc2c(n1)C(C)(C)CN2C(=O)NCC(c1ccccc1)N(C)C (stereo not drawn) [Example 2, N-(2-(dimethylamino)-2-phenylethyl)-3,3,5-trimethyl-2,3-dihydro-1H-pyrrolo[3,2-b]pyridine-1-carboxamide] | – | > 1000 | < 100 |
| CC1(C)CN(C(=O)N2CCC3(CCN(Cc4c(F)cccc4F)CC3)C2)c2cccnc21 [Example 150, (8-(2,6-difluorobenzyl)-2,8-diazaspiro[4.5]decan-2-yl)(3,3-dimethyl-2,3-dihydro-1H-pyrrolo[3,2-b]pyridin-1-yl)methanone] | > 1000 | 100 to 500 | – |
| Cc1ccc2c(n1)C(C)(C)CN2C(=O)N1CCC2(CCN(Cc3ccccc3)CC2)C1 [Example 80, (8-benzyl-2,8-diazaspiro[4.5]decan-2-yl)(3,3,5-trimethyl-2,3-dihydro-1H-pyrrolo[3,2-b]pyridin-1-yl)methanone] | 100 to 500 | < 100 | – |
| Cc1ccc2c(n1)C(C)(C)CN2C(=O)N1CCC2(CCN(Cc3ccc(C#N)c(F)c3)CC2)CC1 [Example 163, 2-fluoro-4-((9-(3,3,5-trimethyl-2,3-dihydro-1H-pyrrolo[3,2-b]pyridine-1-carbonyl)-3,9-diazaspiro[5.5]undecan-3-yl)methyl)benzonitrile] | 100 to 500 | 100 to 500 | – |
| Cc1ccc2c(n1)C(C)(C)CN2C(=O)N1CCC2(CCN(Cc3ccc(F)c(C#N)c3)CC2)C1 [Example 107, 2-fluoro-5-((2-(3,3,5-trimethyl-2,3-dihydro-1H-pyrrolo[3,2-b]pyridine-1-carbonyl)-2,8-diazaspiro[4.5]decan-8-yl)methyl)benzonitrile] | > 1000 | < 100 | – |
| CC(C)CCN1CCC(CNC(=O)N2CC(C)(C)c3ncccc32)CC1 [Example 106, N-((1-isopentylpiperidin-4-yl)methyl)-3,3-dimethyl-2,3-dihydro-1H-pyrrolo[3,2-b]pyridine-1-carboxamide] | 500 to 1000 | 100 to 500 | – |
| CCN(CC)C(CNC(=O)N1CC(C)(C)c2nc(C)ccc21)c1ccccc1 (stereo not drawn) [Example 9, N-(2-(diethylamino)-2-phenylethyl)-3,3,5-trimethyl-2,3-dihydro-1H-pyrrolo[3,2-b]pyridine-1-carboxamide] | < 100 | > 1000 | – |
| Cc1ccc2c(n1)CCN2C(=O)NC[C@@H](c1ccccc1)N(C)C [Example 6, (R)—N-(2-(dimethylamino)-2-phenylethyl)-5-methyl-2,3-dihydro-1H-pyrrolo[3,2-t]pyridine-1-carboxamide] | 500 to 1000 | > 1000 | – |
| Cc1ccc2c(n1)C(C)(C)CN2C(=O)NC[C@@H](c1ccccc1)N(C)C [Example 4, (R)—N-(2-(dimethylamino)-2-phenylethyl)-3,3,5-trimethyl-2,3-dihydro-1H-pyrrolo[3,2-b]pyridine-1-carboxamide] | – | > 1000 | < 100 |
| CN(C)[C@@H](CNC(=O)N1CC(C)(C)c2ncc(Cl)cc21)c1ccccc1 [Example 14, (R)-6-chloro-N-(2-(dimethylamino)-2-phenylethyl)-3,3-dimethyl-2,3-dihydro-1H-pyrrolo[3,2-b]pyridine-1-carboxamide] | 100 to 500 | > 1000 | – |
| O=C(N1CC[C@H](NCCc2ccccc2)C1)N1CCc2ncccc21 [Example 97, (S)-(2,3-dihydro-1H-pyrrolo[3,2-b]pyridin-1-yl)(3-(phenethylamino)pyrrolidin-1-yl)methanone] | 500 to 1000 | > 1000 | – |
| COc1cccc([C@H](CNC(=O)N2CC(C)(C)c3nc(C)ccc32)N(C)C)c1 [Example 35, (R)—N-(2-(dimethylamino)-2-(3-methoxyphenyl)ethyl)-3,3,5-trimethyl-2,3-dihydro-1H-pyrrolo[3,2-b]pyridine-1-carboxamide] | 100 to 500 | > 1000 | – |
| CN[C@@H](CNC(=O)N1CC(C)(C)c2nc(C)ccc21)c1ccccc1 [Example 112, (R)-3,3,5-trimethyl-N-(2-(methylamino)-2-phenylethyl)-2,3-dihydro-1H-pyrrolo[3,2-b]pyridine-1-carboxamide] | 100 to 500 | > 1000 | – |

Now from value to molecule, other results behind:

| Ki [1, 3] [nM] | Ki [2] [nM] | SMILES | Ki [1] [nM] |
| --- | --- | --- | --- |
| < 100 | 100 to 500 | Cc1ccc2c(n1)C(C)(C)CN2C(=O)CC1CCN(Cc2ccccc2)CC1 [Example 130, 2-(1-benzylpiperidin-4-yl)-1-(3,3,5-trimethyl-2,3-dihydro-1H-pyrrolo[3,2-b]pyridin-1-yl)ethanone] | – |
| 100 to 500 | < 100 | Cc1ccc2c(n1)C(C)(C)CN2C(=O)N1CCC2(CCN(Cc3ccccc3)C2)C1 (stereo not drawn) [Example 37, (7-benzyl-2,7-diazaspiro[4.4]nonan-2-yl)(3,3,5-trimethyl-2,3-dihydro-1H-pyrrolo[3,2-b]pyridin-1-yl)methanone] | – |
| 100 to 500 | 100 to 500 | Cc1ccc2c(n1)C(C)(C)CN2C(=O)[C@H]1C[C@@H](N(C)Cc2ccccc2)C1 [Example 139, ((1s,3s)-3-(benzyl(methyl)amino)cyclobutyl)(3,3,5-trimethyl-2,3-dihydro-1H-pyrrolo[3,2-b]pyridin-1-yl)methanone] | – |
| 100 to 500 | < 100 | Cc1ccc2c(n1)C(C)(C)CN2C(=O)N1CCC(N(C)CC2CCOCC2)CC1 [Example 65, (4-(methyl((tetrahydro-2H-pyran-4-yl)methyl)amino)piperidin-1-yl)(3,3,5-trimethyl-2,3-dihydro-1H-pyrrolo[3,2-t]pyridin-1-yl)methanone] | – |
| > 1000 | 500 to 1000 | Cc1ccc2c(n1)C(C)(C)CN2C(=O)N1CCC(N(C)Cc2cccnc2)CC1 [Example 74, (4-(methyl(pyridin-3-ylmethyl)amino)piperidin-1-yl)(3,3,5-trimethyl-2,3-dihydro-1H-pyrrolo[3,2-b]pyridin-1-yl)methanone] | – |
| 100 to 500 | < 100 | CN(Cc1ccc(F)c(F)c1)C1CCN(C(=O)N2CC(C)(C)c3ncccc32)CC1 [Example 79, (4-((3,4-Difluorobenzyl)(methyl)amino)piperidin-1-yl)(3,3-dimethyl-2,3-dihydro-1H-pyrrolo[3,2-b]pyridin-1-yl)methanone] | – |
| > 1000 | > 1000 | Cc1ccc2c(n1)C(C)(C)CN2C(=O)N1CCC(N(C)Cc2cccc(C(=O)N(C)C)c2)CC1 [Example 63, N, N-dimethyl-3-((methyl(1-(3,3,5-trimethyl-2,3-dihydro-1H-pyrrolo[3,2-b]pyridine-1-carbonyl)piperidin-4-yl)amino)methyl)benzamide] | – |
| 100 to 500 | > 1000 | Cc1ccc2c(n1)C(C)(C)CN2C(=O)N[C@H]1CCN(Cc2ccccc2)C1 [Example 21, (S)—N-(1-benzylpyrrolidin-3-yl)-3,3,5-trimethyl-2,3-dihydro-1H-pyrrolo[3,2-b]pyridine-1-carboxamide] | – |
| 500 to 1000 | < 100 | Cc1ccc2c(n1)C(C)(C)CN2C(=O)N1CCC(N(C)Cc2cccc(F)c2)CC1 [Example 116, (4-((3-fluorobenzyl)(methyl)amino)piperidin-1-yl)(3,3,5-trimethyl-2,3-dihydro-1H-pyrrolo[3,2-b]pyridin-1-yl)methanone] | – |
| 100 to 500 | < 100 | Cc1ccc2c(n1)C(C)(C)CN2C(=O)N1CCC(N(C)CCc2ccccc2)CC1 [Example 50, (4-(methyl(phenethyl)amino)piperidin-1-yl)(3,3,5-trimethyl-2,3-dihydro-1H-pyrrolo[3,2-b]pyridin-1-yl)methanone] | – |
| < 100 | 500 to 1000 | Cc1ccc2c(n1)C(C)(C)CN2C(=O)C1CCN(Cc2ccccc2)CC1 [Example 123, (1-benzylpiperidin-4-yl)(3,3,5-trimethyl-2,3-dihydro-1H-pyrrolo[3,2-b]pyridin-1-yl)methanone] | – |
| < 100 | 100 to 500 | Cc1ccc2c(n1)C(C)(C)CN2C(=O)[C@H]1CC[C@H](N(C)Cc2ncccc2F)CC1 [Example 178, ((1r,4r)-4-(((3-fluoropyridin-2-yl)methyl)(methyl)amino)cyclohexyl)(3,3,5-trimethyl-2,3-dihydro-1H-pyrrolo[3,2-b]pyridin-1-yl)methanone] | – |
